From patent publication US20260216242A1, “ALPP-SPECIFIC VARIANT ANTIGEN BINDING MOLECULES” (ALMAC DISCOVERY LIMITED, priority 2022, published 2026) come the findings set out here.

Series [1] has as its system CHO-ALPI cells. As to the kind of experiment: In vitro cell viability (Cell Titre Glo, 96 h), CHO-ALPI. As to conditions: cell-killing. In kind it is cell-based. On the procedure: (§1) CHO-ALPP isoform stable transfectants were generated using CHO-K1 cells (CCL-61) provided by the American Type Culture Collection (ATCC). Grown in ATCC-formulated F-12K medium+10% FCS.
(§2) In vitro cell viability assays for cancer cells treated with anti ALPP/ALPPL2 drug conjugates Cells were seeded in the appropriate complete growth media, as described above, into white, clear bottom 96 well plates (Costar) and incubated at 37° C., 5% C02 for 24 hours. On the following day, dilution series were set up for each test agent at ×10 working stocks. The dose response X10 stock was e.g.: 10000, 5000, 1000, 500, 100, 50, 10, 5, 1, 0.5 nM etc. 10 μL of the X10 stock solutions were added to the cell plates (90 μl per well) using a multichannel pipette. […] 10 μl of vehicle control (PBS) was added to the control wells (columns 11 and 12). Plates were incubated at 37° C., 5% CO2 for 96 hours. […] Plates were allowed to sit for a further 10 minutes at room temperature prior to measuring luminescence read-out using a Clariostar plate-reader (BMG). Data was analysed by calculating the average for untreated (vehicle only) control wells and determining the % of control for each treated well. % of control data was then plotted against Log [Treatment] concentration and the IC50 value derived using non-linear regression fitting in GraphPad Prism software. […]

Series [2] has as its system MKN1 cells. Nature of the series: In vitro cell viability (Cell Titre Glo, 96 h), MKN1. In kind it is cell-based. The following applies: Table 24. On the procedure: MKN1 cells (RCB1003, Riken BRC). Ref: Cancer Sci 2006; 97:387-394, were provided by the RIKEN BRC through the National BioResource Project of the MEXT, Japan Grown in RPMI1640+10% FCS.
(§3) In vitro cell viability assays for cancer cells treated with anti ALPP/ALPPL2 drug conjugates Cells were seeded in the appropriate complete growth media, as described above, into white, clear bottom 96 well plates (Costar) and incubated at 37° C., 5% C02 for 24 hours. On the following day, dilution series were set up for each test agent at ×10 working stocks. The dose response X10 stock was e.g.: 10000, 5000, 1000, 500, 100, 50, 10, 5, 1, 0.5 nM etc. […] Plates were allowed to sit for a further 10 minutes at room temperature prior to measuring luminescence read-out using a Clariostar plate-reader (BMG). Data was analysed by calculating the average for untreated (vehicle only) control wells and determining the % of control for each treated well. % of control data was then plotted against Log [Treatment] concentration and the IC50 value derived using non-linear regression fitting in GraphPad Prism software. […]
(§4) Cell Titre Glo assays were performed as described in Example 5. Cells were incubated with biparatopic VHH-hFc-drug conjugates and h12F3 drug conjugate at 37° C., 5% CO2 for 96 hours and the % of cell viability determined as a function of dose response. […]

Series [3] deals with HeLa cells. Nature of the series: In vitro cell viability (Cell Titre Glo, 96 h), HeLa. The following applies: ALPP/ALPPL2 negative cell-line, Table 24. In kind it is cell-based. On the procedure:
HeLa cells, CCL-2 provided by the American Type Culture Collection (ATCC). Grown in EMEM+10% FCS
In vitro cell viability assays for cancer cells treated with anti ALPP/ALPPL2 drug conjugates Cells were seeded in the appropriate complete growth media, as described above, into white, clear bottom 96 well plates (Costar) and incubated at 37° C., 5% C02 for 24 hours. On the following day, dilution series were set up for each test agent at ×10 working stocks. The dose response X10 stock was e.g.: 10000, 5000, 1000, 500, 100, 50, 10, 5, 1, 0.5 nM etc. 10 μL of the X10 stock solutions were added to the cell plates (90 μl per well) using a multichannel pipette. […] 10 μl of vehicle control (PBS) was added to the control wells (columns 11 and 12). Plates were incubated at 37° C., 5% CO2 for 96 hours. Promega Cell Titre Glo reagent was used as per the manufacturer's instructions to assess cell viability. […] Plates were allowed to sit for a further 10 minutes at room temperature prior to measuring luminescence read-out using a Clariostar plate-reader (BMG). Data was analysed by calculating the average for untreated (vehicle only) control wells and determining the % of control for each treated well. % of control data was then plotted against Log [Treatment] concentration and the IC50 value derived using non-linear regression fitting in GraphPad Prism software. […]

The test system of series [4] is NCI-H1651 cells. As to the kind of experiment: In vitro cell viability (Cell Titre Glo, 96 h), NCI-H1651. In kind it is cell-based. The following applies: Table 24. On the procedure:
NCI-H1651 cells, CRL-5884 provided by the American Type Culture Collection (ATCC). Grown in ATCC DMEM:F12 medium+10% FCS plus supplements required to make ACL-4 media as recommended by ATCC.
as §3
(§5) Cell Titre Glo assays were performed as described in Example 5. Cells were incubated with VHH-hFc-drug conjugates and h12F3 drug conjugates at 37° C., 5% CO2 for 96 hours and the % of cell viability determined as a function of dose response. […]

In series [5] the test system is CHO-ALPP cells. As to the kind of experiment: In vitro cell viability (Cell Titre Glo, 96 h), CHO-ALPP. The following applies: cell-killing. In kind it is cell-based. On the procedure:
as §1, §3, §5

The subject of series [6] is CHO-ALPPL2 cells. Nature of the series: In vitro cell viability (Cell Titre Glo, 96 h), CHO-ALPPL2. The following applies: cell-killing. In kind it is cell-based. As to the method: as §1, §3, §5
The test system of series [7] is CHO-ALPL cells. Nature of the series: In vitro cell viability (Cell Titre Glo, 96 h), CHO-ALPL. In kind it is cell-based. The following applies: cell-killing. As to the method: as §1, §2
Series [8] relates to NCI-N87 cells. Nature of the series: In vitro cell viability (Cell Titre Glo, 96 h), NCI-N87. In kind it is cell-based, human. The following applies: Table 24. On the procedure: NCI-N87 cells, CRL-5822 provided by the American Type Culture Collection (ATCC). Grown in RPM11640+10% FCS.
In vitro cell viability assays for cancer cells treated with anti ALPP/ALPPL2 drug conjugates Cells were seeded in the appropriate complete growth media, as described above, into white, clear bottom 96 well plates (Costar) and incubated at 37° C., 5% C02 for 24 hours. On the following day, dilution series were set up for each test agent at ×10 working stocks. The dose response X10 stock was e.g.: 10000, 5000, 1000, 500, 100, 50, 10, 5, 1, 0.5 nM etc. 10 μL of the X10 stock solutions were added to the cell plates (90 μl per well) using a multichannel pipette. […] Plates were allowed to sit for a further 10 minutes at room temperature prior to measuring luminescence read-out using a Clariostar plate-reader (BMG). Data was analysed by calculating the average for untreated (vehicle only) control wells and determining the % of control for each treated well. % of control data was then plotted against Log [Treatment] concentration and the IC50 value derived using non-linear regression fitting in GraphPad Prism software. […]
as §4

Several values for one entry are separate records, joined by “and”; a condition that tells them apart may be missing. Equal values may be shown once. Read-outs that look alike come from different tables or passages of the source. Where a SMILES comes first, the peptide text is derived from it. [ ]: non-standard residue; d: D form. The star is where a group is joined. Dolaproine = CO[C@@H]([C@@H]1CCCN1)[C@@H](C)C(=O)O; Dil = CC[C@H](C)[C@H](NC)[C@@H](CC(=O)O)OC; X1 = C[C@@H](N*)[C@@H](O)c1ccccc1; NMeV = CN[C@H](C(=O)O)C(C)C

As to `CC[C@H](C)[C@@H]([C@@H](CC(=O)N1CCC[C@H]1[C@H](OC)[C@@H](C)C(=O)N[C@H](C)[C@@H](O)c1ccccc1)OC)N(C)C(=O)[C@@H](NC(=O)[C@@H](NC)C(C)C)C(C)C` [MMAE, monomethylauristatin E] (H-[NMeV]V[Dil][Dolaproine]-X1), the IC50 in series [1] (Table 18, read-out: IC50 @ 96 h, CHO-ALPI) was 11.4 nM and 15.9 nM; in series [1] (Table 23, read-out: IC50 at 96 h, CHO-ALPI) it was 11.4 nM and 15.9 nM; in series [2] (cell-killing), 1.4 nM; in series [3] (cell-killing) it was 1.8 nM; in series [4] (cell-killing), 0.8 nM; in series [5] (Table 18, read-out: IC50 @ 96 h, CHO-ALPP) it was 19.1 nM and 19.5 nM. The IC50 in series [5] (Table 23, read-out: IC50 at 96 h, CHO-ALPP) was 19.1 nM and 19.5 nM; in series [6] (Table 18, read-out: IC50 @ 96 h, CHO-ALPPL2), 24.4 nM and 16.6 nM; in series [6] (Table 23, read-out: IC50 at 96 h, CHO-ALPPL2) it was 24.4 nM and 15.6 nM; in series [7] (Table 18, read-out: IC50 @ 96 h, CHO-ALPL), 29.4 nM and 25.8 nM; in series [7] (Table 23, read-out: IC50 at 96 h, CHO-ALPL), 29.4 nM and 25.8 nM; in series [8] (cell-killing), 0.3 nM. For the same compound, the “% viability remaining, MKN1” value in series [2] came out at 23.1%. The “% viability remaining, HeLa” value in series [3] came to 5.1%. The “% viability remaining, NCI-H1651” value in series [4] was found to be 28.1%. Further, the “% viability remaining, NCI-N87” value in series [8] amounted to 27.9%.
